# Patent US6030960A, “Method of treating hepatitis virus infections” (priority 1998, dated 2000)
# Values joined by “and” are separate entries in the source; they are usually repeats but may differ in a detail not shown here. Identical values can stand only once. Like-named read-outs stand apart in the source and are kept apart here.
# How the values were obtained:
# Assay type in all cases: cell-based
# [1] = Cytotoxicity in HBV persistently infected human HEP G2 cells, neutral red dye uptake (Table 5); conditions: human, hep-g2 cells
# Description: (§1) Initially, evaluations of the alkyl lipids were done to determine whether the compounds were cytotoxic to the cells at concentrations having anti-HBV activity. The assay methodology is szt forth in Korba and Germ, Antiviral Res., 19, 55-70 (1992), incorporated by reference herein. Briefly, these cell cytotoxicity evaluations were done in 96-well plates seeded with HEP-G2 cell monolayers. The hepatoblastoma cell line HEP-G2 transfected with a plasmid carrying the gene that confers resistance to […] and four 5'-3' tandem copies of the Hepatitis B virus genome was obtained from Dr. George Acs. Proc. Natl. Acad. Sci. USA, 84, 1005-1009 (1987). Serial concentrations of compound were added to the RPMI-1640 growth medium and the growth medium was added to the 96-well plates containing the cell monolayers. The cells were incubated for a total of nine days at 37° C. The compound-containing medium was periodically replaced. Each compound was tested at four serial concentrations in triplicate. After nine days of treatment and incubation, 0.01% neutral red dye (Sigma, Inc.) was added to the overlay medium. Cell cytotoxicity was quantitated by measuring the average A510. Values in Table 1 represent the percentage of average A510 values (±standard deviation) relative to nine non-treated control wells.
# (§2) An analysis was periormed to determine the cytotoxicity of the following compounds in human HEP-G2 cells persistently infected with HBV: CP-51, CP-49, CP-9, CP-126, lyso PAF and CP-7. 2'-3'-Dideoxycytidine (ddC) was used as a control in this cytotoxicity analysis. The toxicity analyses were performed in 96-well flat bottomed tissue culture plates following the same procedure set forth in Example 6 above. Each compound was tested at four concentrations, each in triplicate cultures. Uptake of neutral red dye was used to determine the relative level of toxicity. The absorbance of internalized dye at […] (A510) was used for the quantitative analysis.
# (§3) Values are presented as a percentage of the average A510 values (± standard deviations) in ninz separate cultures of untreated cells maintained on the same 96-well plate as the test compounds. The percentage of dye uptake in the nine control cultures was 100±1.
# [2] = system: HEP G2 cells persistently infected with HBV; assay: as above
# Description: as §1, §2, §3
# Hepatitis B virus [3] = assay: Effect on synthesis of antigen markers in persistently infected human HEP G2 cell cultures (Table 7); conditions: for Relative Level of HBeAg / Relative Level of HBsAg / Relative Level of Virion DNA / activity at 10 µM: nine days; for Relative Level of HBeAg / Relative Level of HBsAg / Relative Level of Virion DNA: 12960 min; for activity at 10 µM: Hepatitis B virus, HepG2, 216 h; for effect on HBsAg levels released into the culture medium / reduction in HBeAg and virion DNA levels: in words
# Procedure: Cells were treated with compound for nine days at 37° C. The overlay medium was harvested to measure levels of HBsAg, HBeAg and virion DNA. HBsAg and HBeAg were assayed by EIA (Abbott Laboratories). Virion DNA levels were measured as described in section B above.
# Hepatitis B virus [4] = assay: Effect of alkyl lipids on HBV replication in HBV persistently infected human HEP G2 cells (Table 6); conditions: for Intracellular HBV DNA, Mono (episomal 3.2-3.8 Kb HBV genomes) / Intracellular HBV DNA, RI (replication intermediates): nine days; for inhibition of HBV replication: in words
# Procedure: Cells were treated with a particular compound for nine days at 37° C. Analysis of intracellular HEIV DNA was done 24 hours following the ninth day of treatment. […] The levels of integrated HBV DNA in each cellular DNA preparation were used to calculate the levels of episomal 3.2-3.8 Kb HBV genomes (Mono) and HBV DNA replication intermediates (RI). A zero value indicates an undetectable level of HBV virion DNA. The sensitivity cut-off was 0.1 pg DNA/ml of culture medium.
# [5] = 10 μM, Day 9, 0 = undetectable, cut-off 0.1 pg DNA/ml
# [6] = % of Control Neutral Red Dye Uptake
Structure (SMILES),Relative Level of HBeAg (Hepatitis B virus [3]; 10 μM),Relative Level of HBsAg (Hepatitis B virus [3]; 10 μM),Relative Level of Virion DNA (Hepatitis B virus [3]; 10 μM),effect on HBsAg levels released into the culture medium (Hepatitis B virus [3]),reduction in HBeAg and virion DNA levels (Hepatitis B virus [3]),"HBV Virion DNA (Hepatitis B virus [4]; 1 μM, Day 0)","HBV Virion DNA (Hepatitis B virus [4]; 1 μM, Day 3)","HBV Virion DNA (Hepatitis B virus [4]; 1 μM, Day 6)","HBV Virion DNA (Hepatitis B virus [4]; 1 μM, Day 9)","Intracellular HBV DNA, Mono (episomal 3.2-3.8 Kb HBV genomes) (Hepatitis B virus [4]; 1 μM)","Intracellular HBV DNA, RI (replication intermediates) (Hepatitis B virus [4]; 1 μM)","HBV Virion DNA (Hepatitis B virus [4]; 10 μM, Day 0)","HBV Virion DNA (Hepatitis B virus [4]; 10 μM, Day 3)","HBV Virion DNA (Hepatitis B virus [4]; 10 μM, Day 6)",HBV Virion DNA (Hepatitis B virus [4]; [5]),"Intracellular HBV DNA, Mono (episomal 3.2-3.8 Kb HBV genomes) (Hepatitis B virus [4]; 10 μM)","Intracellular HBV DNA, RI (replication intermediates) (Hepatitis B virus [4]; 10 μM)",inhibition of HBV replication (Hepatitis B virus [4]),also measured
"CCCCCCCCCCCCOCC(COP(=O)(O)OC[C@H]1O[C@@H](n2cc(C)c(=O)[nH]c2=O)C[C@@H]1N=[N+]=[N-])OCCCCCCCCCC (mixture of isomers) [CP-126, 3'-Azido-3'-deoxy-5'-(rac-3-dodecyloxy-2-decyloxy-1-propyl) phosphothymidine]",42 % of Untreated Control,69 % of Untreated Control,14 % of Untreated Control,None of the compounds tested,caused a reduction,67 pg/ml Culture Medium and 54 pg/ml Culture Medium and 70 pg/ml Culture Medium and 69 pg/ml Culture Medium,49 pg/ml Culture Medium and 57 pg/ml Culture Medium and 65 pg/ml Culture Medium and 53 pg/ml Culture Medium,40 pg/ml Culture Medium and 39 pg/ml Culture Medium and 44 pg/ml Culture Medium and 48 pg/ml Culture Medium,28 pg/ml Culture Medium and 20 pg/ml Culture Medium and 22 pg/ml Culture Medium and 26 pg/ml Culture Medium,2.3 pg/μg Cell DNA and 2.7 pg/μg Cell DNA and 2.1 pg/μg Cell DNA and 1.8 pg/μg Cell DNA,51 pg/μg Cell DNA and 67 pg/μg Cell DNA and 56 pg/μg Cell DNA and 61 pg/μg Cell DNA,60 pg/ml Culture Medium and 62 pg/ml Culture Medium and 59 pg/ml Culture Medium and 51 pg/ml Culture Medium,59 pg/ml Culture Medium and 50 pg/ml Culture Medium and 55 pg/ml Culture Medium and 66 pg/ml Culture Medium,20 pg/ml Culture Medium and 21 pg/ml Culture Medium and 26 pg/ml Culture Medium and 29 pg/ml Culture Medium,13 pg/ml Culture Medium and 8 pg/ml Culture Medium and 9 pg/ml Culture Medium and 12 pg/ml Culture Medium,1.9 pg/μg Cell DNA and 2.5 pg/μg Cell DNA and 2.0 pg/μg Cell DNA and 2.3 pg/μg Cell DNA,14 pg/μg Cell DNA and 9 pg/μg Cell DNA and 12 pg/μg Cell DNA and 16 pg/μg Cell DNA,moderately inhibitory of HBV replication,"viability at 216 h, 3 µM ([1]; Trial 2, 3 μM, read-out: % of Control Neutral Red Dye Uptake): 100 ± 1%; viability at 216 h, 10 µM ([1]; Trial 2, 10 μM, read-out: % of Control Neutral Red Dye Uptake): 97 ± 3%; viability at 216 h, 30 µM ([1]; Trial 2, 30 μM, read-out: % of Control Neutral Red Dye Uptake): 68 ± 1%; viability at 216 h, 100 µM ([1]; Trial 2, 100 μM, read-out: % of Control Neutral Red Dye Uptake): 20 ± 2%; Cell toxicity (greater than 50% depression of dye uptake) ([2]; at concentrations with strong or moderate antiviral activity): did not occur; activity at 10 µM (Hepatitis B virus [3]; read-out: Relative Level of HBeAg, 10 μM): 35%; activity at 10 µM (Hepatitis B virus [3]; read-out: Relative Level of HBsAg, 10 μM): 65%; activity at 10 µM (Hepatitis B virus [3]; read-out: Relative Level of Virion DNA, 10 μM): 10%; HBV Virion DNA (Hepatitis B virus [4]; 0.1 μM, Day 0): 50 pg/ml Culture Medium and 52 pg/ml Culture Medium and 54 pg/ml Culture Medium and 60 pg/ml Culture Medium; HBV Virion DNA (Hepatitis B virus [4]; 0.1 μM, Day 3): 77 pg/ml Culture Medium and 79 pg/ml Culture Medium and 67 pg/ml Culture Medium and 65 pg/ml Culture Medium; HBV Virion DNA (Hepatitis B virus [4]; 0.1 μM, Day 6): 61 pg/ml Culture Medium and 72 pg/ml Culture Medium and 83 pg/ml Culture Medium and 66 pg/ml Culture Medium; HBV Virion DNA (Hepatitis B virus [4]; 0.1 μM, Day 9): 78 pg/ml Culture Medium and 64 pg/ml Culture Medium and 82 pg/ml Culture Medium and 77 pg/ml Culture Medium; Intracellular HBV DNA, Mono (episomal 3.2-3.8 Kb HBV genomes) (Hepatitis B virus [4]; 0.1 μM): 2.2 pg/μg Cell DNA and 2.6 pg/μg Cell DNA and 2.4 pg/μg Cell DNA; Intracellular HBV DNA, RI (replication intermediates) (Hepatitis B virus [4]; 0.1 μM): 64 pg/μg Cell DNA and 54 pg/μg Cell DNA and 70 pg/μg Cell DNA and 89 pg/μg Cell DNA"
"CCCCCCCCCCCCCCCCSCCOP(=O)([O-])OCC[N+](C)(C)C [CP-9, 2-hexadecylthio-1-ethylphosphocholine]",57 % of Untreated Control,64 % of Untreated Control,16 % of Untreated Control,None of the compounds tested,caused a reduction,59 pg/ml Culture Medium and 53 pg/ml Culture Medium and 60 pg/ml Culture Medium and 58 pg/ml Culture Medium and 50 pg/ml Culture Medium and 55 pg/ml Culture Medium and 65 pg/ml Culture Medium,66 pg/ml Culture Medium and 60 pg/ml Culture Medium and 82 pg/ml Culture Medium and 55 pg/ml Culture Medium and 52 pg/ml Culture Medium and 64 pg/ml Culture Medium and 90 pg/ml Culture Medium and 63 pg/ml Culture Medium,57 pg/ml Culture Medium and 52 pg/ml Culture Medium and 88 pg/ml Culture Medium and 78 pg/ml Culture Medium and 83 pg/ml Culture Medium and 91 pg/ml Culture Medium and 64 pg/ml Culture Medium,69 pg/ml Culture Medium and 71 pg/ml Culture Medium and 94 pg/ml Culture Medium and 76 pg/ml Culture Medium and 80 pg/ml Culture Medium and 92 pg/ml Culture Medium,2.1 pg/μg Cell DNA and 2.6 pg/μg Cell DNA and 2.3 pg/μg Cell DNA and 2.0 pg/μg Cell DNA and 2.2 pg/μg Cell DNA and 2.4 pg/μg Cell DNA,53 pg/μg Cell DNA and 82 pg/μg Cell DNA and 67 pg/μg Cell DNA and 60 pg/μg Cell DNA and 54 pg/μg Cell DNA and 64 pg/μg Cell DNA and 66 pg/μg Cell DNA,60 pg/ml Culture Medium and 66 pg/ml Culture Medium and 61 pg/ml Culture Medium and 52 pg/ml Culture Medium,52 pg/ml Culture Medium and 68 pg/ml Culture Medium and 57 pg/ml Culture Medium and 60 pg/ml Culture Medium,33 pg/ml Culture Medium and 40 pg/ml Culture Medium and 39 pg/ml Culture Medium and 41 pg/ml Culture Medium,10 pg/ml Culture Medium and 14 pg/ml Culture Medium and 11 pg/ml Culture Medium,2.3 pg/μg Cell DNA and 2.2 pg/μg Cell DNA,13 pg/μg Cell DNA and 14 pg/μg Cell DNA and 17 pg/μg Cell DNA and 12 pg/μg Cell DNA,moderately inhibitory of HBV replication,"viability at 216 h, 3 µM [1, 6]: 100 ± 1%; viability at 216 h, 10 µM [1, 6]: 99 ± 2%; viability at 216 h, 30 µM [1, 6]: 86 ± 2%; viability at 216 h, 100 µM [1, 6]: 45 ± 2%; Cell toxicity (greater than 50% depression of dye uptake) [2]: did not occur; activity at 10 µM (Hepatitis B virus [3]; 10 μM, read-out: Relative Level of HBeAg): 53%; activity at 10 µM (Hepatitis B virus [3]; 10 μM, read-out: Relative Level of HBsAg): 68%; activity at 10 µM (Hepatitis B virus [3]; 10 μM, read-out: Relative Level of Virion DNA): 13%"
